According to patent US20240016784A1, “Y BOX BINDING PROTEIN 1 INHIBITORS” (Oregon Health & Science University, priority 2020, published 2024):

Legend:
ID-8 tumor xenograft = assay: ID8 syngeneic ovarian tumor model, tumor growth and lung metastasis; format: in vivo, C57BL/6 mice
Experimental: (§1) These promising results led us to test SU093 and SU056 in vivo. C57BL/6 mice were implanted with 2×10^6 firefly luciferase (luc+)-expressing ID-8 syngeneic ovarian cancer cells subcutaneously. Once the tumors reached 100 mm^3 in size, we began daily intraperitoneal treatment with SU093 and SU056 at 20 mg/kg (vehicle control 30% PEG-300 in saline). Tumor growth was monitored via bioluminescence imaging (IVIS).
Due to prior observation of a significant reduction in the migratory ability of OC cells treated with the two drugs (FIG. 1H), we also measured the effect of drug treatment on ovarian cancer metastases. At the end of above experiment, lungs were fixed and metastatic foci were counted under the dissecting microscope followed by H&E staining.
(§2) In vivo xenograft model and drug efficacy study: All animal experiments were reviewed and approved by the Animal Care and Use Committee of Stanford University, CA, USA. Luciferase tagged ID8 (2×10^6) or OVCAR8 (5×10^6) cells were implanted into the right flank of 6-7-week-old female C57BL/6 mice and NOD/SCID mice, respectively. Respective treatment began after tumors grew to 100-200 mm^3 diameters. The ID8 syngeneic mice model was treated with a vehicle (30% PEG-300 in saline), 20 mg/kg SU093, and 20 mg/kg SU056 intraperitoneally (IP) daily for 42 days. At the end of treatment, blood was collected from each mouse and analyzed for liver toxicity parameters, including Alanine Aminotransferase (ALT), Aspartate Aminotransferase (AST), and Alkaline Phosphatase (ALKP). OVCAR8 xenograft mice model was treated with vehicle (30% PEG-300 in saline), 5 mg/kg paclitaxel (once a week), 10 mg/kg SU056 (daily), a combination of paclitaxel (5 mg/kg, once a week) and SU056 (10 mg/kg, daily) for 4 weeks. Mice from both studies were euthanized, the tumor and different organs were collected and fixed in neutral buffered formalin and further processed for immunohistochemical analysis.
FIGS. 2A-2F. SU093 and SU056 inhibit mice ovarian ID-8 tumor xenograft growth in C57BL/6 mice. Mice were subcutaneously injected with ID-8 cells mixed with Matrigel in 1:1 ratio and the drug treatment started when tumors reached 100 mm^3. […] FIG. 2B) Tumor volume/mouse as a function of time. […] FIG. 2C) Tumor weight/mouse at the end of the study. […] FIG. 2D) Liver toxicity parameters at the end of 42 days showing no significant difference between control, SU093, and SU056. FIGS. 2E-2F) Lung metastasis assay. FIG. 2E) H&E staining of the lung (red arrow indicates the metastasis from ID8 xenograft). Scale bar, 250 μm. FIG. 2F) No. of lung metastatic nodules.

OC cell lines = assay: Cell migration assay (Boyden chamber); format: cell-based; settings: different OC cell lines, P<0.05
Experimental: (§3) To determine whether proliferation inhibition was the dominant factor driving the reduction in OC viability seen with AzP treatment, we used propidium iodide and annexin-FITC stains with flow cytometry to measure the distribution of cell cycle phases after treatment. […] Furthermore, in the Boyden chamber assay for cell migration, SU093 inhibited cell migration by 40-46% (1 μM, P<0.05) in different OC cell lines.
Cell migration assay: 1×10^5 cells were plated in 60 mm cell culture dishes (Corning-Falcon, #353002) and incubated for 24 h. […] Cells were trypsinized and collected in a conical tube for each plate. Pellets of cells were resuspended, and live cells were counted using a hemocytometer and trypan blue staining. 40,000 live cells were then plated in the upper chamber of 8-micron transwell (Corning-Falcon, #353097) with 0.2% FBS media. The lower chamber contained 10% FBS complete media. […] Each transwell was washed, swiped for non-migrated cells and fixed using 75% ethanol. Fixed transwells were stained with 0.5% crystal violet for 1 h. De-stained transwell membranes were cut and mounted on a slide using DPX mounting media. Migrated cells were counted under the microscope at 100× magnification.
FIG. 1A) Lead optimization of SU093 to obtain SU056. […] FIG. 1G) Effects of SU093 and SU056 on apoptotic cell death analyzed by Annexin-FITC staining. […]

OVCAR-8 and ID8 cells = assay: Clonogenic assay; format: cell-based
Experimental: (§4) We tested the relationship between AzPs dose and the viability of human ovarian cancer cell lines and the ID8 murine ovarian cancer cell line.
(§5) Clonogenic assay: 300 suspended OC cells were plated in each well of 12 well plates (Corning-Costar, #3598) and incubated for 24 h for attachment. The media was replaced after 24 h with media containing a respective concentration of the test compound and incubated for 5-8 days until visible colonies appeared in vehicle-treated wells. Cells were then washed and fixed with 2% paraformaldehyde, followed by washing and staining with 0.5% Crystal violet for 1 h. Cells were de-stained using DI water and allowed to dry. Colonies were counted under the microscope at 100× magnification.
(§6) FIG. 1A) Lead optimization of SU093 to obtain SU056. FIG. 1B) IC50 values of SU093 and SU056 on various ovarian cancer cells. Clonogenic survival of OC cells treated with SU093 or SU056. […] FIG. 1C) Representative colony formation from respective wells. FIG. 1D) Number of colonies formed after SU093 and SU056 treatment. […] FIG. 1F) Cell cycle distribution of propidium iodide (PI)-stained OVCAR8, SKOV3, and ID8 cells. […] FIG. 1G) Effects of SU093 and SU056 on apoptotic cell death analyzed by Annexin-FITC staining. […] FIG. 1H) Cell migration assay.

[1] = test system: OVCAR8, SKOV3, and ID8 cells; assay: Cell cycle analysis (propidium iodide, flow cytometry); format: cell-based; settings: 12 h treatment; PI-stained OVCAR8, SKOV3, ID8
Experimental: as §3
Cell cycle analysis: 30,000 OC cells were plated in each well of 12 well plates and incubated for 24 h. […] Both live and dead cells were collected via trypsinization and cell pellets were fixed with 70% ethanol. Fixed cells were stained using propidium iodide (PI) cocktail (80 μg/mL RNase A and 50 μg/mL PI in saponin-EDTA solution) and incubated at 4° C. overnight. Each sample was analyzed using a Guava® easyCyte™ Flow Cytometer (Millipore, Burlington, MA). FlowJo software calculated the % cells in each cell cycle phase.
as §6

ovarian cancer cells = assay: Apoptotic cell death assay (Annexin-FITC); format: cell-based; settings: 24 h treatment; Annexin-FITC staining
Experimental: as §3
Apoptotic cell death assay: Cells were plated and treated as described in cell cycle analysis assay above. Treated cells were incubated for 24 h and both live and dead cells were collected. Cells were stained with Annexin V and PI using FITC Annexin V apoptosis detection kit (BD Pharmingen, San Jose, CA) by following the manufacturer's protocol. Guava® easyCyte™ Flow Cytometer was used to analyze the stained cells.
as §6

SKOV-3 = assay: Clonogenic assay; format: cell-based, human; settings: 0.5 & 1 μM
Experimental: as §4, §5, §6

[2] = Liver toxicity parameters (ALT, AST, ALKP) in ID8 study; format: in vivo, C57BL/6 mice; settings: 20 mg/kg daily IP, 42 days
Experimental: as §1
as §2, with “OVCAR8 xenograft mice model was treated with vehicle (30% PEG-300 in saline), 5 mg/kg paclitaxel (once a week), 10 mg/kg SU056 (daily), a combination of paclitaxel (5 mg/kg, once a week) and SU056 (10 mg/kg, daily) for 4 weeks. Mice from both studies were euthanized, the tumor and different organs were collected and fixed in neutral buffered formalin and further processed for immunohistochemical analysis.” left out

YB-1 and MDR1 = assay: Immunoblotting of YB-1 and MDR1 in OVCAR8 cells; format: cell-based, human; settings: paclitaxel 0.5 nM, SU056 0.5 μM, 12 h
Experimental: Immunoblotting: Once 70% confluency of OC cells plated in 100 mm cell culture was obtained, dishes were treated with a respective concentration of SU056 for a respective time. At the end of treatment, cells were collected and lysed using M-PER™ lysis solution (Thermo Scientific, #78503), supplemented with Halt protease and phosphatase inhibitor cocktail (Thermo Scientific, #78440). An equal amount (40-60 μg) of proteins was resolved using 8%/10%/12% SDS-PAGE gel electrophoresis. Proteins were then transferred onto a PVDF membrane (Bio-Rad, #162-01277). Blocked membranes were incubated with respective primary antibody solution prepared in 5% nonfat milk TPBS at 4° C. overnight with gentle rocking. Primary antibody-probed membranes were washed and probed with respective HRP-conjugated secondary antibody. Proteins were detected using Immobilon® Crescendo Western HRP Substrate (Millipore, Germany) and visualized on an IVIS Lumina Imaging System (Perkin Elmer, Waltham, MA). […]

OVCAR8 OC tumors = assay: OVCAR8 xenograft combination study; format: in vivo, NOD-SCID mice; settings: SU056 10 mg/kg daily, paclitaxel 5 mg/kg weekly, intraperitoneal, 28 days
Experimental: In a pharmacokinetics study in vivo, injection of 20 mg/kg SU056 led to a maximum serum concentration of 28.19 μg/mL with a T1/2 of ˜45 min. We then tested the synergism of paclitaxel and SU056 co-treatment in vivo in NOD-SCID mice implanted with OVCAR8 OC tumors as described above. Mice were given daily treatment of SU056 (10 mg/kg) and weekly treatment of paclitaxel (5 mg/kg) were administered intraperitoneally. […] This likely resulted from decreased paclitaxel efflux from OVCAR8 cells in the presence of SU056.
as §2, with “OVCAR8 xenograft mice model was treated with vehicle (30% PEG-300 in saline), 5 mg/kg paclitaxel (once a week), 10 mg/kg SU056 (daily), a combination of paclitaxel (5 mg/kg, once a week) and SU056 (10 mg/kg, daily) for 4 weeks. Mice from both studies were euthanized, the tumor and different organs were collected and fixed in neutral buffered formalin and further processed for immunohistochemical analysis.” left out

Row | Compound | reduction in tumor weight (ID-8 tumor xenograft; 20 mg/kg daily IP, at 42 days) | tumor progression vs vehicle control (ID-8 tumor xenograft; 20 mg/kg daily intraperitoneal, bioluminescence imaging) | inhibition at 1 µM (OC cell lines) | OC colony formation (OVCAR-8 and ID8 cells) | cell cycle distribution [1] | apoptotic cell death (ovarian cancer cells) | colony formation, effect on SKOV-3 (SKOV-3) | impact on blood chemistry indicators (AST, ALT, alkaline phosphatase) [2] | expression of YB-1 and MDR1 (Western blot) (YB-1 and MDR1) | OC tumor growth (OVCAR8 OC tumors)
1 | COc1ccc2c(c1)N(CCO)C1=C(C(=O)OC1)C2c1cccc(F)c1 (stereo not shown) [SU093, 9-(3-fluorophenyl)-4-(2-hydroxyethyl)-6-methoxy-4,9-dihydrofuro[3,4-b]quinolin-1(3H)-one, reference compound] | 1.5 fold | significantly delay the tumor progression | 40 to 46% | decreased OC colony formation in a dose-dependent and significant manner | G1 phase arrest | induce apoptotic cell death | moderately affect | no significant impact | – | –
2 | CC(=O)O[C@H]1C(=O)[C@@]2(C)[C@H]([C@H](OC(=O)c3ccccc3)[C@]3(O)C[C@H](OC(=O)[C@H](O)[C@@H](NC(=O)c4ccccc4)c4ccccc4)C(C)=C1C3(C)C)[C@]1(OC(C)=O)CO[C@@H]1C[C@@H]2O [paclitaxel, reference compound] | – | – | – | – | – | – | – | – | upregulate the expression of YB-1 and MDR1 | significant reduction in OC tumor growth
